Experimental data taken from PMC9731865, “Gambogic acid and juglone inhibit RNase P through distinct mechanisms” (The Journal of Biological Chemistry, 2022).

Target: T1, human MRPP1/2/3 (Homo sapiens, UniProt O15091)
T1 construct: N-terminal truncation (residues 46–583, Δ45MRPP3); His6 (N, cleaved yes); made in house; host or cells: Rosetta (DE3) / Rosetta2 (DE3) E. coli
T1 sequence (O15091 46-583): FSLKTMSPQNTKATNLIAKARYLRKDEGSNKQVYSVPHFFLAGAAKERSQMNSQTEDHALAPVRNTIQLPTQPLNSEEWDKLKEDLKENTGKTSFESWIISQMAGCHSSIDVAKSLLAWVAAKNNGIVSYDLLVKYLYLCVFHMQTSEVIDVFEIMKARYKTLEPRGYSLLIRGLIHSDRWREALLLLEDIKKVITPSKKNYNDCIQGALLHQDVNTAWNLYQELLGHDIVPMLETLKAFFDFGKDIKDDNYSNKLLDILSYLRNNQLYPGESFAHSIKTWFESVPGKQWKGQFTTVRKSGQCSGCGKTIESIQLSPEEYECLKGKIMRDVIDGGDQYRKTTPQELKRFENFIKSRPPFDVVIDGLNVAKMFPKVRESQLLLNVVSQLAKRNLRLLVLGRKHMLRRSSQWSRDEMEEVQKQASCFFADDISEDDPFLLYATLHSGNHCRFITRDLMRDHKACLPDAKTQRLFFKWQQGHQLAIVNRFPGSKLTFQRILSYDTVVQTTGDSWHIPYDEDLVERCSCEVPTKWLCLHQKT
Experiment: Human mitochondrial RNase P (MRPP1/2/3) activity assay
Assay type: biochemical
Details: 30 min preincubation; 50 nM MRPP3, 500 nM MRPP1/2, 500 nM pre-tRNA, 37 °C; apparent IC50 for juglone
Experimental: Figure 4 Gambogic acid and juglone inhibit A. thaliana PRORP1 (green), human MRPP1/2/3 (red), and B. subtilis RNase P (blue). Compounds gambogic acid (A) and juglone (B) were incubated with enzyme at double the reaction concentration for 30 min prior to the addition of an equal volume of substrate to initiate the reaction. PRORP1 reactions (shown in green) were performed with 0.3 nM PRORP1 and 800 nM pre-tRNA containing 40 nM Fl-pre-tRNA at 25 °C in 30 mM MOPS pH 7.8, 5 mM MgCl2, 100 mM NaCl, 1 mM TCEP, 500 nM (12 μg/ml) yeast tRNA, 5 mM spermidine, 6.65 μg/ml BSA, and 0.01% NP-40. MRPP1/2/3 reactions (shown in red) were performed using 50 nM MRPP3, 500 nM MRPP1/2, 500 nM pre-tRNA containing 40 nM Fl-pre-tRNA at 37 °C in 50 mM MOPS (pH 7.8), 1 mM TCEP, 4.5 mM MgCl2, and 100 mM NaCl. […]
The inhibition of human MRPP1/2/3 by gambogic acid and juglone was evaluated via dose–response using a quenched assay. Human MRPP1/2/3 activity was measured as a function of gambogic acid and juglone concentration using 50 nM MRPP3, 500 nM MRPP1/2, 500 nM pre-tRNA containing 40 nM Fl-pre-tRNA in 50 mM MOPS (pH 7.8), 4.5 mM MgCl2, 100 mM NaCl, and 1 mM TCEP (pH 7.5). […] Samples were separated by 20% Urea PAGE (Ultra Pure SequaGel), fluorescence signal was quantified using ImageJ, and the data were analyzed using Prism. […]

| SMILES | IC50 |
| --- | --- |
| O=C1C=CC(=O)c2c(O)cccc21 [juglone, 5-hydroxy-1,4-naphthalenedione] | 1800 ± 40 nM |
| CC(C)=CCC[C@]1(C)C=Cc2c(O)c3c(c(CC=C(C)C)c2O1)O[C@]12C(=C[C@@H]4C[C@H]1C(C)(C)O[C@@]2(C/C=C(/C)C(=O)O)C4=O)C3=O [gambogic acid] | 260 ± 60 nM |
